pKi: −log10 of the molar value.
Target: GCN2 kinase (Homo sapiens, UniProt Q9P2K8)
Test: GCN2 enzyme inhibition assay (Transcreener ADP2 fluorescence polarization)
Assay type: biochemical
Settings: 280 μM ATP
Experimental: Compounds were screened for their ability to inhibit GCN2 kinase activity using a Transcreener® ADP^2 fluorescence polarization assay that detects ADP levels (BellBrook Labs, WI). Assays were carried out in a buffer consisting of 25 mM Tris-HCl (pH 7.5), 50 mM NaCl, 10 mM MgCl2 and 1 mM DTT. Final substrate concentrations were 280 μM ATP and 200 μM peptidic substrate ([…]-OH [(RS)7], Bachem, Switzerland). Assays were carried out at 25° C. in the presence of a (typical) final concentration of 4 nM GCN2 kinase. An assay buffer containing GCN2 kinase and (RS)7 was prepared. 4.7 μL of this stock solution was placed per well of a black, low volume, 384-well microtitre plate (e.g. catalogue number 3676, Corning Inc., NY). To this was added […] of DMSO containing serial dilutions of the test compound (typical final concentrations of test compound were 0 to 8 μM). The plate was incubated for 10 minutes at 25° C. prior to the addition of 4.7 μL of ATP stock buffer to initiate the enzyme reaction. The reaction was allowed to proceed for 1 hour at 25° C., prior to the addition of 10 μL detection buffer (consisting of appropriate concentrations of ADP^2 antibody and ADP Alexa633 tracer in 1× stop and detect buffer as supplied by BellBrook Labs). […] Percentage inhibition of enzyme activity was then calculated at each compound dose. IC50 and Ki(app) (using known assay and kinetic parameters) values were calculated from percentage inhibition data using a non-linear, tight-binding algorithm. All data analysis was undertaken using the Screener® software package (Genedata, Switzerland).

[1] = compounds of Formula II, 4 nM GCN2 kinase
[2] = Enzyme activity for compounds of Formula IV, Ki(app), 25° C.

Chain of GCN2 kinase (Q9P2K8 whole entry): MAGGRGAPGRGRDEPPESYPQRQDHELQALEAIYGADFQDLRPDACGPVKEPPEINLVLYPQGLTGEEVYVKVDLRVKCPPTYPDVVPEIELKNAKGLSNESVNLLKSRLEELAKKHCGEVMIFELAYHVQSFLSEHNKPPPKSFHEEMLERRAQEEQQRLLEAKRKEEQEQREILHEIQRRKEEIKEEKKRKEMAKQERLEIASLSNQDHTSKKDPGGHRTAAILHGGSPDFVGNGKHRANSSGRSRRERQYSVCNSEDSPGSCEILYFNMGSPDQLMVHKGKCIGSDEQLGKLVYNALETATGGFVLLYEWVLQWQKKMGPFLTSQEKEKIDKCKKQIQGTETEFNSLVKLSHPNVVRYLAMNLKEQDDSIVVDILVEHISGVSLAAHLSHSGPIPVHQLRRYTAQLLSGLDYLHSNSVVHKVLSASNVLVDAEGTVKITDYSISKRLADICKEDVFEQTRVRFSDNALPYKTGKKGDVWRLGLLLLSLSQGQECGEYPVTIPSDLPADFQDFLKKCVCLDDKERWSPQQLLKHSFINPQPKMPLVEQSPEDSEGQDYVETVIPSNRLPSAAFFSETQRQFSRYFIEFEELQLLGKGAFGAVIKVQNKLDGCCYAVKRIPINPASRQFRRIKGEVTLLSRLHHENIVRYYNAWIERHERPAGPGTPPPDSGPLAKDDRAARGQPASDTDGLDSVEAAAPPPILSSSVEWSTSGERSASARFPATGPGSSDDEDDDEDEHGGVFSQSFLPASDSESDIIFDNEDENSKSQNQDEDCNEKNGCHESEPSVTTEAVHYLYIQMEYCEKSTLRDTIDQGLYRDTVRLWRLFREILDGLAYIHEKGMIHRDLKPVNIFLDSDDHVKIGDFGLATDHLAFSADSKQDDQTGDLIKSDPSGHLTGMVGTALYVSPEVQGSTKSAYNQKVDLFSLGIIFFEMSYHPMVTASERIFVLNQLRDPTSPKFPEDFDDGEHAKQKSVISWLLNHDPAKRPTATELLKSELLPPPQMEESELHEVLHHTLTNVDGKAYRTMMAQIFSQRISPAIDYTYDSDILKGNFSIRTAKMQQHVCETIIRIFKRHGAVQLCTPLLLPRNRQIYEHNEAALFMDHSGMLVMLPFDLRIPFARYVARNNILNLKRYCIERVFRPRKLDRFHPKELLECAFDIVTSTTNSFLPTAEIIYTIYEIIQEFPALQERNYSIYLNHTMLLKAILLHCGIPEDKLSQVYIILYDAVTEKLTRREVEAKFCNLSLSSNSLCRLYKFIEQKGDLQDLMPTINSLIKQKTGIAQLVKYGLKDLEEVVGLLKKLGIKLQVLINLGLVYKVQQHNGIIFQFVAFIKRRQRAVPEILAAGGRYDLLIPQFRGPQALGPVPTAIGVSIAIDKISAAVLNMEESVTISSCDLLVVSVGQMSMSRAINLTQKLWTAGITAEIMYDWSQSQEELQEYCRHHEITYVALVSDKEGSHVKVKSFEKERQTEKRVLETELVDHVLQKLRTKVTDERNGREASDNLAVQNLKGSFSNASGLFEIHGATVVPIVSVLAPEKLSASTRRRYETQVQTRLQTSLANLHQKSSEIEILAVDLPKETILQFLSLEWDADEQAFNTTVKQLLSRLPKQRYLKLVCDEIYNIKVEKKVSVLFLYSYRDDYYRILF

| pKi [1] | pKi [2] | SMILES |
| --- | --- | --- |
| 6.00 to 8.00 |  | CC1C(N=S(C)(C)=O)CCCN1c1cc(-c2cnc3ccc(C(F)F)nn23)ncn1 (single isomer, unassigned) [II-594, ((1-(6-(6-(Difluoromethyl)imidazo[1,2-b]pyridazin-3-yl)pyrimidin-4-yl)-2-methylpiperidin-3-yl)imino)dimethyl-λ^6-sulfanone] |
| 6.00 to 8.00 |  | CC(C)(O)C1CCCN(c2cc(-c3cnc4ccc(C(F)F)nn34)ncn2)C1 (single isomer, unassigned) [II-613, 2-(1-(6-(6-(Difluoromethyl)imidazo[1,2-b]pyridazin-3-yl)pyrimidin-4-yl)piperidin-3-yl)propan-2-ol] |
| 6.00 to 8.00 |  | CC(C)(O)C1CCCN(c2cc(-c3cnc4ccc(C(F)F)nn34)ncn2)C1 (single isomer, unassigned) [II-614, 2-(1-(6-(6-(Difluoromethyl)imidazo[1,2-b]pyridazin-3-yl)pyrimidin-4-yl)piperidin-3-yl)propan-2-ol] |
| 6.00 to 8.00 |  | CC1CC(CS(C)(=O)=O)C(C)N(c2cc(-c3cnc4ccc(C(F)F)nn34)ncn2)C1 (single isomer, unassigned) [II-625, 6-(Difluoromethyl)-3-[6-[2,5-dimethyl-3-(methylsulfonylmethyl)-1-piperidyl]pyrimidin-4-yl]imidazo[1,2-b]pyridazine] |
| > 8.00 |  | CC1CC(CS(C)(=O)=O)C(C)N(c2cc(-c3cnc4ccc(C(F)F)nn34)ncn2)C1 (single isomer, unassigned) [II-626, 6-(difluoromethyl)-3-[6-[2,5-dimethyl-3-(methylsulfonylmethyl)-1-piperidyl]pyrimidin-4-yl]imidazo[1,2-b]pyridazine] |
| 6.00 to 8.00 |  | CC1CC(N=S(C)(C)=O)C(C)N(c2cc(-c3cnc4ccc(C(F)F)nn34)ncn2)C1 (single isomer, unassigned) [II-630, ((1-(6-(6-(Difluoromethyl)imidazo[1,2-b]pyridazin-3-yl)pyrimidin-4-yl)-2,5-dimethylpiperidin-3-yl)imino)dimethyl-λ^6-sulfanone] |
| 6.00 to 8.00 |  | CC1CCN(c2cc(-c3cnc4ccc(C(F)F)nn34)ncn2)CC1N=S(C)(C)=O (single isomer, unassigned) [II-632, ((1-(6-(6-(Difluoromethyl)imidazo[1,2-b]pyridazin-3-yl)pyrimidin-4-yl)-4-methylpiperidin-3-yl)imino)dimethyl-λ^6-sulfanone] |
| 6.00 to 8.00 |  | CC1CCN(c2cc(-c3cnc4ccc(C(F)F)nn34)ncn2)CC1N=S(C)(C)=O (single isomer, unassigned) [II-633, ((1-(6-(6-(Difluoromethyl)imidazo[1,2-b]pyridazin-3-yl)pyrimidin-4-yl)-4-methylpiperidin-3-yl)imino)dimethyl-λ^6-sulfanone] |
| 6.00 to 8.00 |  | CS(=N)(=O)CC1CCCN(c2cc(-c3cnc4ccc(C(F)F)nn34)ncn2)C1 (single isomer, unassigned) [II-636, ((1-(6-(6-(Difluoromethyl)imidazo[1,2-b]pyridazin-3-yl)pyrimidin-4-yl)piperidin-3-yl)methyl)(imino)(methyl)-λ^6-sulfanone] |
| 6.00 to 8.00 |  | CS(=N)(=O)CC1CCCN(c2cc(-c3cnc4ccc(C(F)F)nn34)ncn2)C1 (single isomer, unassigned) [II-637, ((1-(6-(6-(Difluoromethyl)imidazo[1,2-b]pyridazin-3-yl)pyrimidin-4-yl)piperidin-3-yl)methyl)(imino)(methyl)-λ^6-sulfanone] |
| 6.00 to 8.00 |  | CS(=N)(=O)CC1CCCN(c2cc(-c3cnc4ccc(C(F)F)nn34)ncn2)C1 (single isomer, unassigned) [II-638, ((1-(6-(6-(Difluoromethyl)imidazo[1,2-b]pyridazin-3-yl)pyrimidin-4-yl)piperidin-3-yl)methyl)(imino)(methyl)-λ^6-sulfanone] |
| 6.00 to 8.00 |  | CS(=N)(=O)CC1CCCN(c2cc(-c3cnc4ccc(C(F)F)nn34)ncn2)C1 (single isomer, unassigned) [II-639, ((1-(6-(6-(Difluoromethyl)imidazo[1,2-b]pyridazin-3-yl)pyrimidin-4-yl)piperidin-3-yl)methyl)(imino)(methyl)-λ^6-sulfanone] |
| 6.00 to 8.00 |  | CCS(C)(=O)=NC1CC(C)CN(c2cc(-c3cnc4ccc(C(F)F)nn34)ncn2)C1 (single isomer, unassigned) [II-640, ((1-(6-(6-(Difluoromethyl)imidazo[1,2-b]pyridazin-3-yl)pyrimidin-4-yl)-5-methylpiperidin-3-yl)imino)(ethyl)(methyl)-λ^6-sulfanone] |
| 6.00 to 8.00 |  | CCS(C)(=O)=NC1CC(C)CN(c2cc(-c3cnc4ccc(C(F)F)nn34)ncn2)C1 (single isomer, unassigned) [II-641, ((1-(6-(6-(Difluoromethyl)imidazo[1,2-b]pyridazin-3-yl)pyrimidin-4-yl)-5-methylpiperidin-3-yl)imino)(ethyl)(methyl)-λ^6-sulfanone] |
| > 8.00 |  | CCS(C)(=O)=NC1CC(C)CN(c2cc(-c3cnc4ccc(C(F)F)nn34)ncn2)C1 (single isomer, unassigned) [II-642, ((1-(6-(6-(Difluoromethyl)imidazo[1,2-b]pyridazin-3-yl)pyrimidin-4-yl)-5-methylpiperidin-3-yl)imino)(ethyl)(methyl)-λ^6-sulfanone] |
| > 8.00 |  | CCS(C)(=O)=NC1CC(C)CN(c2cc(-c3cnc4ccc(C(F)F)nn34)ncn2)C1 (single isomer, unassigned) [II-643, ((1-(6-(6-(Difluoromethyl)imidazo[1,2-b]pyridazin-3-yl)pyrimidin-4-yl)-5-methylpiperidin-3-yl)imino)(ethyl)(methyl)-λ^6-sulfanone] |
| 6.00 to 8.00 |  | CC1CC(N=S(C)(=O)C2CC2)CN(c2cc(-c3cnc4ccc(C(F)F)nn34)ncn2)C1 (single isomer, unassigned) [II-644, Cyclopropyl((1-(6-(6-(difluoromethyl)imidazo[1,2-b]pyridazin-3-yl)pyrimidin-4-yl)-5-methylpiperidin-3-yl)imino)(methyl)-λ^6-sulfanone] |
| 6.00 to 8.00 |  | CC1CC(N=S(C)(=O)C2CC2)CN(c2cc(-c3cnc4ccc(C(F)F)nn34)ncn2)C1 (single isomer, unassigned) [II-645, Cyclopropyl((1-(6-(6-(difluoromethyl)imidazo[1,2-b]pyridazin-3-yl)pyrimidin-4-yl)-5-methylpiperidin-3-yl)imino)(methyl)-λ^6-sulfanone] |
| 6.00 to 8.00 |  | CC1CC(N=S(C)(=O)C2CC2)CN(c2cc(-c3cnc4ccc(C(F)F)nn34)ncn2)C1 (single isomer, unassigned) [II-646, Cyclopropyl((1-(6-(6-(difluoromethyl)imidazo[1,2-b]pyridazin-3-yl)pyrimidin-4-yl)-5-methylpiperidin-3-yl)imino)(methyl)-λ^6-sulfanone] |
| 6.00 to 8.00 |  | CC1CC(N=S(C)(=O)C2CC2)CN(c2cc(-c3cnc4ccc(C(F)F)nn34)ncn2)C1 (single isomer, unassigned) [II-647, Cyclopropyl((1-(6-(6-(difluoromethyl)imidazo[1,2-b]pyridazin-3-yl)pyrimidin-4-yl)-5-methylpiperidin-3-yl)imino)(methyl)-λ^6-sulfanone] |
| 6.00 to 8.00 |  | CCC1CC(N=S(C)(C)=O)CN(c2cc(-c3cnc4ccc(C(F)F)nn34)ncn2)C1 (single isomer, unassigned) [II-651, ((1-(6-(6-(Difluoromethyl)imidazo[1,2-b]pyridazin-3-yl)pyrimidin-4-yl)-5-ethylpiperidin-3-yl)imino)dimethyl-λ^6-sulfanone] |
| 6.00 to 8.00 |  | CC1CN(c2cc(-c3cnc4ccc(C(F)F)nn34)ncn2)C(C)C(c2cn[nH]c2)N1 (single isomer, unassigned) [II-653, 6-(Difluoromethyl)-3-(6-(2,5-dimethyl-3-(1H-pyrazol-4-yl)piperazin-1-yl)pyrimidin-4-yl)imidazo[1,2-b]pyridazine] |
| 6.00 to 8.00 |  | CC1CC(C(N)=O)C(C)N(c2cc(-c3cnc4ccc(C(F)(F)F)nn34)ncn2)C1 (single isomer, unassigned) [II-718, 2,5-Dimethyl-1-[6-[6-(trifluoromethyl)imidazo[1,2-b]pyridazin-3-yl]pyrimidin-4-yl]piperidine-3-carboxamide] |
| 6.00 to 8.00 |  | CC1CC(N=S(C)(C)=O)CN(c2cc(-c3cnc4ccc(C(F)F)nn34)c(F)cn2)C1 (single isomer, unassigned) [II-722, ((1-(4-(6-(Difluoromethyl)imidazo[1,2-b]pyridazin-3-yl)-5-fluoropyridin-2-yl)-5-methylpiperidin-3-yl)imino)dimethyl-λ^6-sulfanone] |
|  | 7.00 to 8.00 | FC(F)(F)c1cn2c(-c3ccnc(N4CCOC(c5cn[nH]c5)C4)n3)cnc2cn1 (single isomer, unassigned) [IV-185, 2-(1H-Pyrazol-4-yl)-4-(4-(6-(trifluoromethyl)imidazo[1,2-a]pyrazin-3-yl)pyrimidin-2-yl)morpholine] |
|  | > 8.00 | FC(F)(F)c1cn2c(-c3ccnc(N4CCOC(c5cn[nH]c5)C4)n3)cnc2cn1 (single isomer, unassigned) [IV-186, 2-(1H-Pyrazol-4-yl)-4-(4-(6-(trifluoromethyl)imidazo[1,2-a]pyrazin-3-yl)pyrimidin-2-yl)morpholine] |
